From patent publication US20110123617A1, “CLIOQUINOL FOR THE TREATMENT OF HEMATOLOGICAL MALIGNANCIES” (priority 2007, published 2011)

Columns and labels:
K562 leukemia cells = assay: K562 leukemia xenograft; type: in vivo, mouse; settings: 100 mg/kg for 5 of 7 days, subcutaneous K562
Excerpt: Similar results were obtained with a K562 leukemia xenograft.

p27 = assay: Immunoblotting of p27; type: cell-based; settings: low micromolar concentrations
Excerpt: (§1) A) Effect of increasing concentrations of clioquinol on LP1 and MY5 multiple myeloma cells at twenty hours after clioquinol treatment; determined by SDS-PAGE immunoblotting. B) Effect of increasing concentrations of clioquinol on the G0/G1 ratio in AML3, U937, LP1 and MY5 cells at twenty hours after clioquinol treatment; determined by PI staining and flow cytometry. To prepare cytosolic extracts, NIH3T3 cells and myeloma cells were washed with phosphate-buffered saline (PBS, pH 7.4) and suspending in lysis buffer [10 mM Tris (pH 7.4), 150 mM NaCl, 0.1% Triton X-100, 0.5% sodium deoxycholate, and 5 mM EDTA] containing protease inhibitors (Complete tablets, Roche, Indianapolis, Ind.). Protein concentrations were determined by the Bradford assay. Immunoblot assays were performed by subjecting equal amounts of protein to SDS-PAGE gels followed by transfer to Nitrocellulose membranes. Membranes were probed with polyclonal rabbit anti-human cyclin D2 (0.5 μg/ml, both from Santa Cruz Biotech, Santa Cruz, Calif.), or monoclonal mouse-anti human p21 (1:200 v/v, Santa Cruz Biotech), monoclonal mouse-anti human p27 (1:2,500 v/v BD Transduction Laboratories), polyclonal mouse-anti human ubiquitin (1:2,000 v/v Calbiochem) and monoclonal mouse-anti-β-actin (1:10,000 v/v) (Sigma, St. Lois, Mo.). […] Detection was performed by the Enhanced Chemical Luminescence (ECL) method (Pierce, Rockford, Ill.).

[1] = tested on: primary AML patient samples; assay: Cell viability (MTS assay), primary AML patient samples; type: cell-based, human
Description: (§2) Cell viability of leukemia, myeloma, solid tumor and primary cells forty-eight hours after clioquinol treatment by MTS assay. Cell viability was assessed with the CellTiter96® Aqueous Non-Radioactive Assay kit according to manufactures' instructions (Promega). Apoptosis was measured by flow cytometry to detect cell surface Annexin V expression and propidium iodide (PI) uptake (Biovision, Mountain View, Calif., USA) as previously described (20) The inventors tested the effects of clioquinol on the viability of acute leukemia (n=7), myeloma (n=14), and solid tumor (n=5) cell lines as well as primary AML samples (n=6) and primary normal hematopoietic cells (n=3). Forty-eight hours after incubation, clioquinol induced cell death in 6/7 AML, 12/14 myeloma, 0/5 solid tumor, […] and 0/3 normal hematopoietic cells with an IC50 <20 μM (FIG. 5). Of note, after oral administration of clioquinol, trough serum concentrations of 20 μM can be achieved in patients (32).

cyclin D2 = assay: Immunoblotting of cyclin D2 in myeloma and leukemia cells; type: cell-based; settings: low micromolar concentrations
Excerpt: as §1

[2] = tested on: MDAY-D2 murine leukemia cells
Description: DBA-2 mice were injected intraperitoneally with MDAY-D2 murine leukemia cells. Mice were then treated twice daily by oral gavage with clioquinol (100 mg/kg) dissolved in intralipid or intralipid control. Ten days after treatment, mice were sacrificed, the intraperitoneal tumor excised, and the weight and volume of the tumor measured.
MDAY-D2 leukemia cells were injected intraperitoneally into DBA2 mice. Mice were then treated twice daily with oral clioquinol (100 mg/kg) for 10 days. Ten days after treatment, mice were sacrificed and the weight and volume of the intraperitoneal tumor was measured (FIG. 7). […] K562 leukemia cells were injected subcutaneous into sublethally irradiated […] mice. The clioquinol treatment was initiated when tumors reached volumes of 200 mm^3 at which time mice were randomized to receive 100 mg/kg of clioquinol (treated group) or buffer control (untreated group) for 5 of 7 days. Caliper measurements were performed twice weekly to estimate tumor volume and differences compared between treated and untreated groups.

p21 = assay: Immunoblotting of p21; type: cell-based; settings: low micromolar concentrations
Excerpt: as §1

[3] = tested on: acute leukemia cell lines; assay: Cell viability (MTS assay), acute leukemia cell lines; type: cell-based; settings: 6/7 AML cell lines, forty-eight hours; read-out: IC50 (cell death)
Description: as §2

[4] = patients, after oral administration; cited from earlier work
[5] = tested on: chymotrypsin-like activity of the proteasome; assay: Proteasome activity in cell lysates (Suc-LLVY-AMC cleavage); type: biochemical; settings: cell lysates from leukemia and myeloma cell lines
Description: A) Proteasome activity of MDAY-D2 and JJN3 cellular extracts after two hours of treatment with clioquinol (CQ), CuCl2 (Cu), or an equimolar concentration of CQ and Cu. After treatment, the preferential chymotrypsin-like substrate Suc-LLVY-AMC was added and the rate of free AMC was measured over time with a florescent spectrophotometric plate reader (excitation=380 nm, emission=460 nm). B) Proteasome activity of intact MDAY-D2 and JJN3 cells after two hours of treatment with clioquinol (CQ), CuCl2 (Cu), or an equimolar concentration of CQ and Cu. After treatment, the preferential chymotrypsin-like substrate Suc-LLVY-AMC was added and the rate of free AMC was measured over time with a florescent spectrophotometric plate reader (excitation=380 nm, emission=460 nm). […] The chymotrypsin-like activity of the proteasome was measured by incubating equal amounts of protein with the preferential chymotrypsin-like substrate Suc-LLVY-AMC in assay buffer (50 mM Tris-HCl, pH 7.5, 150 mM NaCl) for two hours. After incubation, […] and the rate of free AMC was measured over time with a florescent spectrophotometric plate reader (excitation=380 nm, emission=460 nm). […] The chymotrypsin-like activity of the proteasome was measured by monitoring the rate of cleavage of the fluorescent substrate Suc-LLVY-AMC.

MY5 cells = assay: Apoptosis by Annexin V and PI staining and flow cytometry; type: cell-based
Description: (TM) (20 μM). Apoptosis was measured by Annexin V and PI staining and flow cytometry. Cell viability was assessed with the CellTiter96® Aqueous Non-Radioactive Assay kit according to manufactures' instructions (Promega). Apoptosis was measured by flow cytometry to detect cell surface Annexin V expression and propidium iodide (PI) uptake (Biovision, Mountain View, Calif., USA) as previously described (20)

For `Oc1c(I)cc(Cl)c2cccnc12` [clioquinol, 5-chloro-7-iodo-8-hydroxyquinoline], the “tumor growth (tumor volume)” value (K562 leukemia cells) was “delayed tumor growth”, the “expression of p27” value (p27) was “increased expression” and the IC50 ([1]; Homo sapiens, 6/7 primary AML patient samples, forty-eight hours, read-out: IC50 (cell death)) was less than 20 µM. For the same compound, the potency of clioquinol ([1]; primary AML cells supplemented with copper) was “increased the potency of clioquinol”, the “levels of cyclin D2” value (cyclin D2) was “reduced levels of cyclin D2” and the “tumor progression (weight and volume of intraperitoneal tumor)” value ([2]; 100 mg/kg oral twice daily for 10 days) was “delayed tumor progression”. The tumor weight ([2]; in vivo mouse model of leukemia) was “dramatically reduces tumor weight”, the “expression of p21” value (p21) was “increased expression” and the IC50 [3] was less than 20 µM. The trough serum concentrations [4] was 20 µM, the “rate of Suc-LLVY-AMC cleavage” value [5] was “inhibited the rate of Suc-LLVY-AMC cleavage” and the clioquinol-induced cell death (MY5 cells; copper supplemented in the medium (CuCl2 20 μM)) was “enhanced the toxicity of clioquinol”. For the same compound, the “viability of MY5 cells” value (MY5 cells; twenty-four hours) was “reduces the viability of MY5 cells” and the clioquinol-induced cell death (MY5 cells; with copper chelator tetrathiomoylbdate (20 μM)) was “abrogated clioquinol-induced cell death”.
